Laboratory results reported in ChEMBL document CHEMBL5465560, “Selectivity Literature for EUbOPEN Chemogenomic Library” (2024).
One block for each compound: values may come before it.

Tests used:
[1] = molecular target: 5-hydroxytryptamine receptor 2A (Homo sapiens, UniProt P28223); test: Selectivity interaction (Panel of non-epigenetic targets (kinases, GPCRs, ion channels, and transporters, Eurofins) ) EUB0000271b HTR2A; settings: at 1 µM
[2] = molecular target: TGF-beta receptor type-2 (Homo sapiens) (UniProt P37173); test: Selectivity interaction (Ambit KINOMEscan and KiNATiv profiling in Jurkat cells) EUB0000090b TGFBR2; format: cell-based; settings: at 1 µM
Chain of TGF-beta receptor type-2 (Homo sapiens) (P37173 whole entry): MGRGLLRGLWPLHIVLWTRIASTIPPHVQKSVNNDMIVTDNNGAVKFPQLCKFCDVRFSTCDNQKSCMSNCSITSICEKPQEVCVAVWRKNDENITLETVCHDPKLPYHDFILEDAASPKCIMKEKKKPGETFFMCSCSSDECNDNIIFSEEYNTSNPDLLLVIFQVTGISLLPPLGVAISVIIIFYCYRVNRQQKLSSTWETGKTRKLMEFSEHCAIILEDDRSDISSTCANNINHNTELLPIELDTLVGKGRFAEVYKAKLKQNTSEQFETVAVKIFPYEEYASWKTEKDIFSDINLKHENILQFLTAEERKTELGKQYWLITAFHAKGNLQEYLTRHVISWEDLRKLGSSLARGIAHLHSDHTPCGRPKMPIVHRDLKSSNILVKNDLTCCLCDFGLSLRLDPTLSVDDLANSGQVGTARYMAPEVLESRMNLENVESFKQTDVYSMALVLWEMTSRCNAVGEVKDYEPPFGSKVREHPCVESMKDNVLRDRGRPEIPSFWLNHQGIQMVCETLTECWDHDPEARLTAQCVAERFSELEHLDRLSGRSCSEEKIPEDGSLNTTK

[3] = molecular target: T1, Hormonally up-regulated neu tumor-associated kinase (Homo sapiens) (UniProt P57058); test: Selectivity interaction (KinomeScan (DiscoverX)) EUB0000655a HUNK; settings: at 10 µM
T1 sequence (whole entry): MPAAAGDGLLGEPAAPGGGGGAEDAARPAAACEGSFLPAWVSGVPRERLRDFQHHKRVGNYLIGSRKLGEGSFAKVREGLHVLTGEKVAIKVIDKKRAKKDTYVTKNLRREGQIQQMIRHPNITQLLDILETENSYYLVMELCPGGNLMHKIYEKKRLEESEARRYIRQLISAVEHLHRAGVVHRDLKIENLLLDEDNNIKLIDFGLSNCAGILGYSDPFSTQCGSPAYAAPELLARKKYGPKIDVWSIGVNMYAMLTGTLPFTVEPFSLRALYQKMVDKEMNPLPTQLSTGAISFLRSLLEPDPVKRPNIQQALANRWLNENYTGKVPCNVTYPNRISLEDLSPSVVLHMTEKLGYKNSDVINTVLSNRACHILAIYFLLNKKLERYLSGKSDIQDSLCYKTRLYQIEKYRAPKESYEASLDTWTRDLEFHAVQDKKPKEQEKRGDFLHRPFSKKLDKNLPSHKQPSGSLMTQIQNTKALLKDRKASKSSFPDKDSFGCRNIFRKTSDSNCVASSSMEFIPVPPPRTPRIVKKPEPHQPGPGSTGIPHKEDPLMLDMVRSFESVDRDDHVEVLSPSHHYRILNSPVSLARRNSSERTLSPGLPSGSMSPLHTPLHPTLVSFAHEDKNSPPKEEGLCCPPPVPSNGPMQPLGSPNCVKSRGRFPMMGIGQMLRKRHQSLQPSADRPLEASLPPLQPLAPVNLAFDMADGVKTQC

[4] = molecular target: Casein kinase II subunit alpha (Homo sapiens, UniProt P68400); test: Selectivity interaction (KinomeScan (DiscoverX)) EUB0001079a CSNK2A1; settings: at 1 µM
Chain of Casein kinase II subunit alpha (P68400 whole entry, looked up): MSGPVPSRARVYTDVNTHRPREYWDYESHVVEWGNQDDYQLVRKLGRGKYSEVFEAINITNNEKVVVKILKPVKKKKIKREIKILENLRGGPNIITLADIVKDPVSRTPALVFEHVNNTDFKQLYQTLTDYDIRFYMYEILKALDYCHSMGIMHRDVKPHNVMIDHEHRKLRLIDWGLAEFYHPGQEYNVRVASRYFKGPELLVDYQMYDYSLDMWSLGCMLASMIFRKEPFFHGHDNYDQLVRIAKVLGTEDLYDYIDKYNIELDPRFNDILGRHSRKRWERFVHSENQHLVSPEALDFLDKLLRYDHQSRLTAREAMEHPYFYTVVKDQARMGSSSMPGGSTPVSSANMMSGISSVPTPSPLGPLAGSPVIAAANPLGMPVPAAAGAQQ

[5] = molecular target: T2, Serine/threonine-protein kinase PLK4 (Homo sapiens) (UniProt O00444); settings: at 10 µM
T2 sequence (whole entry): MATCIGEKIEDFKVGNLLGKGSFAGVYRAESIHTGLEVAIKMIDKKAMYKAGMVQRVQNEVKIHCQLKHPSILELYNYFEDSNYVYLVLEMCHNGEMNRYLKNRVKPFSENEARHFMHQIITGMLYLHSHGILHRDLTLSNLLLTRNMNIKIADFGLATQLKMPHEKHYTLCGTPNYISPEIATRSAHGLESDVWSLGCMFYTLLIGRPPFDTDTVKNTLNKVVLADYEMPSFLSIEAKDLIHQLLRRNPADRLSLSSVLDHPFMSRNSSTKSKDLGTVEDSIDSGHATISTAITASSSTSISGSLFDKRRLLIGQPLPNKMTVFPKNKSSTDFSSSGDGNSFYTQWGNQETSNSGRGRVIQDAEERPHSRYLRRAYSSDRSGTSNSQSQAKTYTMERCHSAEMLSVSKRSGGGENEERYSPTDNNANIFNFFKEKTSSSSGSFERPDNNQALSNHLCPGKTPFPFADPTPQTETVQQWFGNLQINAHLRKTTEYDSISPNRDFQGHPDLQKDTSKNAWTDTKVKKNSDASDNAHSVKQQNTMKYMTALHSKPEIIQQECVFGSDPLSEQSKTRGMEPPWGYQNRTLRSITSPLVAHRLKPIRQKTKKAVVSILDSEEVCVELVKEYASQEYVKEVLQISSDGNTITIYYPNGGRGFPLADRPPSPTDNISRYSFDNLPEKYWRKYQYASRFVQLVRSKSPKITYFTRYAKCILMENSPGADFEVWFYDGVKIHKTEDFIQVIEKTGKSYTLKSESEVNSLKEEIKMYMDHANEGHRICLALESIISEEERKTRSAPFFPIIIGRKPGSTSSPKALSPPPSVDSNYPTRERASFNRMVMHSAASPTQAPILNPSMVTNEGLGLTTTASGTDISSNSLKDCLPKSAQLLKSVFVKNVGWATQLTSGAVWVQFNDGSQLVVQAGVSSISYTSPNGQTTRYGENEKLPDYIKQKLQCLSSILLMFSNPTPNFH

[6] = molecular target: Focal adhesion kinase 1 (Homo sapiens, UniProt Q05397); test: Selectivity interaction (ActivX KiNativ screen (kinase selectivity in THP-1 cell lysates)) EUB0000639a PTK2; format: subcellular; settings: lysate
Chain of Focal adhesion kinase 1 (Q05397 2-1052 limits assumed): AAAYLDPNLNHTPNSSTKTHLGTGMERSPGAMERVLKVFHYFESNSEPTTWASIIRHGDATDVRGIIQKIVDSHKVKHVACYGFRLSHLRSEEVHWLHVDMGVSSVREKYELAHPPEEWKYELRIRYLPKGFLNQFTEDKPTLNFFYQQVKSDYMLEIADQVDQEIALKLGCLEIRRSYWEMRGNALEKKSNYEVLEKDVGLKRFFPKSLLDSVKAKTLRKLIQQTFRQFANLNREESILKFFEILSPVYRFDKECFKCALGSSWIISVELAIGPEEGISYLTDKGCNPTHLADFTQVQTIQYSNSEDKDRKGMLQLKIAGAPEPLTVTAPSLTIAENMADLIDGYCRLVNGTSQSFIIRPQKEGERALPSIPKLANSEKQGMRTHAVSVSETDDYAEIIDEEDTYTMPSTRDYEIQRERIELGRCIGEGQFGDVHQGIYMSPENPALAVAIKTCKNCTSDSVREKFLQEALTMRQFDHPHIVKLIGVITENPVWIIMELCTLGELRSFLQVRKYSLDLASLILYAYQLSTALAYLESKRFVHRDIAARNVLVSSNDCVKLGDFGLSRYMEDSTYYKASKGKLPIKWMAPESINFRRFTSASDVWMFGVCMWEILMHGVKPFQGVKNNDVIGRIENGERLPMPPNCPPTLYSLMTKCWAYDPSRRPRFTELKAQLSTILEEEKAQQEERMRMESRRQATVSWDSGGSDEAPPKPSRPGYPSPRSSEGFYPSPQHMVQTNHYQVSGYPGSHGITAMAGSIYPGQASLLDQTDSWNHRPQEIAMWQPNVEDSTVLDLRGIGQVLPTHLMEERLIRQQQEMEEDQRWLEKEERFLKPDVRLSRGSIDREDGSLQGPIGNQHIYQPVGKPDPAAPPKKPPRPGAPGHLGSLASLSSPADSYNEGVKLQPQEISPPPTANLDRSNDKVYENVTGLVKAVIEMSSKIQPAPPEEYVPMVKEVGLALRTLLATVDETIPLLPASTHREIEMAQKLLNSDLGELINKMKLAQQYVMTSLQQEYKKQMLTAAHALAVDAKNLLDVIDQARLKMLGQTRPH

[7] = molecular target: T3, Serine/threonine-protein kinase 4 (Homo sapiens) (UniProt Q13043); test: Selectivity interaction (KinomeScan (DiscoverX)) EUB0001049a STK4; settings: at 1 µM
T3 sequence (whole entry): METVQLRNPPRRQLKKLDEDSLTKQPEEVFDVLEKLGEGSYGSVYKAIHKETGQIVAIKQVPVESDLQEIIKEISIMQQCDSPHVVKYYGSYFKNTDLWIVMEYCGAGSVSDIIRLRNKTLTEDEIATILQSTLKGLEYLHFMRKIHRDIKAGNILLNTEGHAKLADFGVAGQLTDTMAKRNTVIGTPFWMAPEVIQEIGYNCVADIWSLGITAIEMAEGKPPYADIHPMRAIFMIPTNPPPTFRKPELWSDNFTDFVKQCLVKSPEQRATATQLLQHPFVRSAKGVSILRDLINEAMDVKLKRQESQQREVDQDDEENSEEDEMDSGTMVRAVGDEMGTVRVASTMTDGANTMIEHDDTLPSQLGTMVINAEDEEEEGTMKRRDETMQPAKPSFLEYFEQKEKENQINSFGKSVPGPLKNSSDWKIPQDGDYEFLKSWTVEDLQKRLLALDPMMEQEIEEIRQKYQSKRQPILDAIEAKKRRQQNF

[8] = molecular target: Death-associated protein kinase 1 (Homo sapiens, UniProt P53355); test: Selectivity interaction (KinomeScan (DiscoverX)) EUB0001049a DAPK1; settings: at 1 µM
Chain of Death-associated protein kinase 1 (P53355 whole entry, looked up, canonical isoform): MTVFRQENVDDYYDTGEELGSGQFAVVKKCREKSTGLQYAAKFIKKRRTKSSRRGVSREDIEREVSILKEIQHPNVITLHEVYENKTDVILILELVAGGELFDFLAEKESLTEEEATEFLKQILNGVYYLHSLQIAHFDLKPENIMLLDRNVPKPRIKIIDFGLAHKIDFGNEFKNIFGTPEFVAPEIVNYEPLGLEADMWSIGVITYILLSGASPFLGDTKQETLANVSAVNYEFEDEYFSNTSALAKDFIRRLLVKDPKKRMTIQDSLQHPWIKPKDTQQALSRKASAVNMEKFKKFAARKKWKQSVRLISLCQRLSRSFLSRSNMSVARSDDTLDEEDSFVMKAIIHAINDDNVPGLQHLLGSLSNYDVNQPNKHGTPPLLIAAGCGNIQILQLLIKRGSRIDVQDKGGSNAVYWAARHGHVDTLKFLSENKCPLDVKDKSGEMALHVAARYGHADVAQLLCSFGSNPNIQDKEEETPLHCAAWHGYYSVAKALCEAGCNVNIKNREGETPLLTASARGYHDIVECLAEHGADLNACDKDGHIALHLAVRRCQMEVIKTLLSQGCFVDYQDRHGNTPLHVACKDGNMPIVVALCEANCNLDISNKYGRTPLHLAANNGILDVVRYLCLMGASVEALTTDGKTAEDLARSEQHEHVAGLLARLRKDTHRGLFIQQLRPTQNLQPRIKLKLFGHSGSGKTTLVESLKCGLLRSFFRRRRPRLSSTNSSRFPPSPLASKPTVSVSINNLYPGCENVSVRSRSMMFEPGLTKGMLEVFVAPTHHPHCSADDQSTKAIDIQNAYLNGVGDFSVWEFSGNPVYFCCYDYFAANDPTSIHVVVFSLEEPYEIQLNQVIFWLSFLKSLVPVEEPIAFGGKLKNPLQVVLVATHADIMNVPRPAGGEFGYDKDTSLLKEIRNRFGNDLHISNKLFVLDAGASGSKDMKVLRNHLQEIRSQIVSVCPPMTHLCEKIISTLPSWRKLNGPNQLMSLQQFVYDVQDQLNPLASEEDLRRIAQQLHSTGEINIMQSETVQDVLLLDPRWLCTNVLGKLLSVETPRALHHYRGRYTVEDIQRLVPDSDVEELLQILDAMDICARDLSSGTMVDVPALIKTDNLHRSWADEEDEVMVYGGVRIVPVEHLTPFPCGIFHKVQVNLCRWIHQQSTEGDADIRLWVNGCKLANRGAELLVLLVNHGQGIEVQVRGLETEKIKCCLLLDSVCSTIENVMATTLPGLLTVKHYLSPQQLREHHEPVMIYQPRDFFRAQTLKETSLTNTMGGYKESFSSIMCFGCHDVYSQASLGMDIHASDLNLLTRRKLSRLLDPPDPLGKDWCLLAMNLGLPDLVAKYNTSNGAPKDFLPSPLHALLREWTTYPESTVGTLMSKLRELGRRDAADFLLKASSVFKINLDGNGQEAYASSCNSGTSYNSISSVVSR

[9] = molecular target: Casein kinase I isoform gamma-2 (Homo sapiens) (UniProt P78368); test: Selectivity interaction (Kinase panel (Z-LYTE Assay)) EUB0001632a CSNK1G2; settings: at 10 µM
Chain of Casein kinase I isoform gamma-2 (Homo sapiens) (P78368 whole entry, looked up, canonical isoform): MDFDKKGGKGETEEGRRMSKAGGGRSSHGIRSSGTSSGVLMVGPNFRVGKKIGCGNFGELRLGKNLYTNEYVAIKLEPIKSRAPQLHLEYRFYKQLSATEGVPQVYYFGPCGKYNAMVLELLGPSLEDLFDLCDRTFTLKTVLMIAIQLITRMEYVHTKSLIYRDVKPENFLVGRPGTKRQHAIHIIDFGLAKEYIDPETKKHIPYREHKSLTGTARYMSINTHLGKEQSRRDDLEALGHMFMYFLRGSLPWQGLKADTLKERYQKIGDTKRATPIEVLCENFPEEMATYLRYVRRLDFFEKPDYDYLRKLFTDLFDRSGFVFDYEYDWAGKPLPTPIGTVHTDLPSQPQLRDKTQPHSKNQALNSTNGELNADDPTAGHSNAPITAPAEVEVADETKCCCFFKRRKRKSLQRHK

[10] = molecular target: Tyrosine-protein kinase JAK2 (Homo sapiens, UniProt O60674); test: Selectivity interaction (Kinase counterscreening (biochemical assay)) EUB0000604a JAK2

Chain of 5-hydroxytryptamine receptor 2A (P28223 whole entry): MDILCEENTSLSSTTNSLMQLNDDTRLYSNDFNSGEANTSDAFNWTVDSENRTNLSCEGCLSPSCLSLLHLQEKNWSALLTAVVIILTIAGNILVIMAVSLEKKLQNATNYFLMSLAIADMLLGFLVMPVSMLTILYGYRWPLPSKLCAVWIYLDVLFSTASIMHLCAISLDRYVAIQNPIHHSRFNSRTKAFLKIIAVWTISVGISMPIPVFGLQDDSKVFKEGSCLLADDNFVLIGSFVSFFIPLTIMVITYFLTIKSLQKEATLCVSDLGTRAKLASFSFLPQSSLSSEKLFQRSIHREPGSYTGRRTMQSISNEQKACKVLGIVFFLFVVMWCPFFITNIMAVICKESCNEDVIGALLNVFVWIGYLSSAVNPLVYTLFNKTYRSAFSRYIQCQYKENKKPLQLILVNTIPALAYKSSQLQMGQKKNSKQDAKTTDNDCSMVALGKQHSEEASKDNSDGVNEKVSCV

Structure (SMILES): Cc1cc(C)cc([C@@H]2c3cc(C)ccc3NC(=O)CN2C(=O)c2ccc(Br)s2)c1
% of inhibition [1]: 12%

Structure (SMILES): CN(C)C/C=C/C(=O)Nc1ccc(C(=O)N2CCCC(Nc3ncc(Cl)c(-c4c[nH]c5ccccc45)n3)C2)cc1 (centres undefined)
% of control [2]: 87%

Structure (SMILES): CN(C)CCOc1ccc(-c2nc(-c3ccncc3)c(-c3ccc4c(c3)CC/C4=N\O)[nH]2)cc1
% of control [3]: 84%

Structure (SMILES): Nc1cnc(N2CCc3cc(S(=O)(=O)Nc4c(F)cc(Cl)cc4F)cc(N4CCCC4=O)c32)nc1 [TP-020n]
% of control [4]: 100%

Structure (SMILES): Cc1cc([C@@H](C)Nc2ccccc2C(=O)O)c2nc(N3CCOCC3)cc(=O)n2c1 [AZD-6482]
% of control [5]: 100%

% of inhibition ([6]; at 0.01 µM): 25.4%
% of inhibition ([6]; at 0.04 µM): -3.4%
% of inhibition ([6]; at 0.2 µM): -1.1%
% of inhibition ([6]; at 1 µM): -16.1%
% of inhibition ([6]; at 5 µM): 15.5%
Structure (SMILES): CC[C@@H]1[C@H](F)C(=O)N[C@@H]1COc1nccc2cc(C(N)=O)c(OC)cc12 [ZIMLOVISERTIB]

Structure (SMILES): COc1cc(Nc2nc(C)cc(-c3cnn4nc(OC)ccc34)n2)cc(C(F)(F)F)c1
% of control [7]: 85%
% of control [8]: 88%

% of control [9]: 13.1%
Structure (SMILES): Cn1cc(-n2cnc3c(NCc4nc5cc(Cl)c(Cl)cc5[nH]4)nc(N4CCOCC4)nc32)cn1

Structure (SMILES): Cc1cnc(Nc2ccc(F)cc2Cl)nc1-c1c[nH]c(C(=O)N[C@H](CO)c2cccc(Cl)c2)c1
Ki [10]: > 4 µM
